This assay deals with T1, β-glucanase.
T1 construct: gene eglA; native secreted enzyme purified from culture supernatant (ammonium sulfate, DEAE-Cellulose, Sephadex G200); 56 kDa on SDS-PAGE; gene not identified; assayed as CMC hydrolysis
Kind of assay: residual CMC hydrolysis, DNS reducing sugar. In kind it is biochemical, Aspergillus niger. Particulars: free enzyme, standard assay 0.5% CMC stock, citrate pH 5.0, 40 °C.

The text below walks through data of PMC8545931, “Production and immobilization of β-glucanase from Aspergillus niger with its applications in bioethanol production and biocontrol of phytopathogenic fungi” (Scientific Reports, 2021).

Compound `CC(O)C(C)O` (stereo not shown) [2.3-butanediol] registered an IC50 (arginyl reagent, printed as 2,3-butanediol, probably 2,3-butanedione meant) of 4.65 mM.

For the compound `CC(=O)n1ccnc1` [N-Acetyl imidazole], half-maximal inhibition (covalent, tyrosyl reagent) (IC50) was put at 8.87 mM.

`O=C1CCC(=O)N1Br` [N-bromosuccinimide] displayed an IC50 (covalent, tryptophanyl reagent) of 6.44 mM.

As to `[Hg+][c]1ccccc1` [phenylmercuric acetate], under “covalent, sulfhydryl reagent”, half-maximal inhibition (IC50) required 5.47 mM.

For orientation: IC50 means the concentration that inhibits the measured activity by half. Low readings indicate greater potency, high ones weaker potency.
